≈ marks a conversion by molar mass, not a printed value.
Assays:
sucrase = sucrase (Rattus norvegicus, UniProt P23739); test: In vitro sucrase inhibition (rat intestinal mucosa α-glucosidase, glucose assay kit)
Description: (§2) The α-Glucosidase preparation and inhibitory activity evaluation followed established laboratory protocols [41]. After overnight fasting, rats were humanely euthanized according to approved ethical guidelines. Small intestinal segments were immediately excised and placed on ice to preserve enzymatic activity. Following longitudinal dissection, the luminal surface was rinsed three times with pre-chilled PBS (0.1 M, pH 7.4), and mucosa was scraped using sterile slides. The mucosal tissue was subsequently dissolved in cold PBS (1:5 m/v), centrifuged (8000 rpm, 4 °C, 4 min), and the supernatant was snap-frozen in liquid nitrogen for storage at −80 °C.
(§3) After shaking, 50 μL of maltase (11.32 U/mL) or sucrase (15.26 U/mL) was added and incubated at 37 °C for 20 min with oscillation. Reactions were terminated by heating at 95 °C for 15 min. Glucose production was quantified using a glucose assay kit, and IC50 values were calculated with GraphPad Prism 9.5.1.

maltase = test: In vitro maltase inhibition (rat intestinal mucosa α-glucosidase, glucose assay kit); settings: for IC50 on maltase: Figure 4C, same IC50 in mass units, in brackets; for IC50: read-out: IC50 against maltase, Figure 4
Description: as §2, §3

diabetic mice [1] = test: Sucrose tolerance test, PBG detection in alloxan-induced diabetic mice; type: in vivo; settings: sucrose 3 g/kg oral, acarbose 6 mg/kg
Description: (§1) PBG detection in diabetic mice adhered to the protocol previously established by our group. After 12-h fasting, hyperglycemia was induced by tail vein injection of alloxan at a dose of 60 mg/kg. Fasting blood glucose was measured 72 h post-induction. Mice with blood glucose levels of 180–360 mg/dL were considered diabetic and randomized into five groups (n = 8/group): Model (sucrose 3 g/kg); […] SP-10 L (sucrose 3 g/kg + SP-10 5 mg/kg); SP-10 M (sucrose 3 g/kg + SP-10 10 mg/kg) and SP-10 H (sucrose 3 g/kg + SP-10 20 mg/kg). Blood glucose was measured pre-gavage and at 30, 60, and 120 min post-gavage. Data was recorded and analyzed for PBG and AUC using Graphpad Prism 9.5.1. Maltose and starch experiments used identical designs.

diabetic mice [2] = test: Maltose tolerance test, PBG detection in alloxan-induced diabetic mice; type: in vivo; settings: maltose 3 g/kg oral, compared to model group
Description: as §1

diabetic mice [3] = test: Starch tolerance test, PBG detection in alloxan-induced diabetic mice; type: in vivo; settings: starch 3 g/kg oral, acarbose 6 mg/kg, compared to model group
Description: as §1

[4] = IC50 against sucrase, Figure 4, sucrose 50 mmol/L, 37 °C, 20 min
[5] = IC50 on sucrase, Figure 4D, same IC50 in mass units, in brackets
[6] = maltose 1 mmol/L, 37 °C, 20 min
[7] = SP-10 10 and 20 mg/kg, compared to model group

Sequence of sucrase (P23739 whole entry): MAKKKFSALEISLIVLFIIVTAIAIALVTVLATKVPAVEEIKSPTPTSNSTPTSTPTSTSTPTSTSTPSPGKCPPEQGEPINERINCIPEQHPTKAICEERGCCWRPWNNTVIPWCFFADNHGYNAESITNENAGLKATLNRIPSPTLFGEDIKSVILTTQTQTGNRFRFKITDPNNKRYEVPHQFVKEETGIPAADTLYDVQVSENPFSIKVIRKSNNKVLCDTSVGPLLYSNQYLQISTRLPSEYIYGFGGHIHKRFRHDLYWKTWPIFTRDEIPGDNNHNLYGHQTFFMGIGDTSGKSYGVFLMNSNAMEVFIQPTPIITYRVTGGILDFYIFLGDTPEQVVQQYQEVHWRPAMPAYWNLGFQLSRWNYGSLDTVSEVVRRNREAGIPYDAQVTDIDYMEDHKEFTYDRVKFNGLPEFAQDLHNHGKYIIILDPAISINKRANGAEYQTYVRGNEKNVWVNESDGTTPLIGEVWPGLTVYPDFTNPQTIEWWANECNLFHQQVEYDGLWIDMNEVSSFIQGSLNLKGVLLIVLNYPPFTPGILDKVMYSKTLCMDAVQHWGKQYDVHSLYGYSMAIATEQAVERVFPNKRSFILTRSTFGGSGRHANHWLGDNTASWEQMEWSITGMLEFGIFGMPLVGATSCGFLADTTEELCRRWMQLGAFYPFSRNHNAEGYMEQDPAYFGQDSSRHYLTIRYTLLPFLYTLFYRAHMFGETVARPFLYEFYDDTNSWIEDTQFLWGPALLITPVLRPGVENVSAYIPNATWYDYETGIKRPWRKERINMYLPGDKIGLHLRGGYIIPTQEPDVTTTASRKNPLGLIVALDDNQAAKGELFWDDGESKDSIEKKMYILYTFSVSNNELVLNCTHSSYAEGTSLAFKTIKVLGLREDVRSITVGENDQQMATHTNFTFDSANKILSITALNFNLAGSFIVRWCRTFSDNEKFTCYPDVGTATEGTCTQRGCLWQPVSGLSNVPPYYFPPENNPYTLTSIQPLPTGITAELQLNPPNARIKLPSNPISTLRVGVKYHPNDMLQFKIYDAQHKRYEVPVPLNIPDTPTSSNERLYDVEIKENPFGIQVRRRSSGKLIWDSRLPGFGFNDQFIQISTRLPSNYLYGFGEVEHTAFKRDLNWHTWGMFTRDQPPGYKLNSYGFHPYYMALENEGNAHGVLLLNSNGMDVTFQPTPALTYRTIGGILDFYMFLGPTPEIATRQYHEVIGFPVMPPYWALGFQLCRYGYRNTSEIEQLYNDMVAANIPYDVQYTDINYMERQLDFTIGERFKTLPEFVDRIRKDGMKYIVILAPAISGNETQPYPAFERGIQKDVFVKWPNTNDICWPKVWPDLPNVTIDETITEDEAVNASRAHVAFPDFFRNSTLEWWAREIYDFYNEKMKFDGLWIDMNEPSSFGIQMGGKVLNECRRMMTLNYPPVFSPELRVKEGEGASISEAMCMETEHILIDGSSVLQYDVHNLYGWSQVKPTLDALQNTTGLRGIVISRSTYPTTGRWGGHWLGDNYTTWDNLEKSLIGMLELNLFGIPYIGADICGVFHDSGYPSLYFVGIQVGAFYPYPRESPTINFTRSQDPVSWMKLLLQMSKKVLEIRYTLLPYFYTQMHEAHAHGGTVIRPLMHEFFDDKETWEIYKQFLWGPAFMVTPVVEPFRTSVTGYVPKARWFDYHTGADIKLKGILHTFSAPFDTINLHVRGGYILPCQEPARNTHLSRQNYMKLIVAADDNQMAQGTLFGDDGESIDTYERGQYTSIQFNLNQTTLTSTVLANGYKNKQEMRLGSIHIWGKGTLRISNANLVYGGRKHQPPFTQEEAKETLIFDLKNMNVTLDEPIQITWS

Row | SMILES | IC50 (sucrase; [4]) | IC50 (sucrase; [5]) | IC50 on maltase (maltase) | IC50 (maltase; [6]) | IC50 against sucrase, fold higher relative to acarbose (sucrase) | Blood glucose AUC (0–120 min) (diabetic mice [1]; [7]) | PBG levels at 30 min (diabetic mice [1]; [7]) | Glycemic levels by 120 min (diabetic mice [1]; SP-10 H 20 mg/kg) | PBG levels at 30 and 60 min (diabetic mice [2]; all three SP-10 groups (5, 10, 20 mg/kg), acarbose 6 mg/kg) | PBG levels at 120 min (diabetic mice [2]; all treatment groups (SP-10 5, 10, 20 mg/kg, acarbose 6 mg/kg)) | PBG levels at all measured time points (diabetic mice [3]; SP-10 H 20 mg/kg) | AUC levels (0–120 min) (diabetic mice [3]; SP-10 M 10 mg/kg and SP-10 H 20 mg/kg) | IC50 for maltase inhibition (maltase; Figure 1, maltose 1 mmol/L, 37 °C, 20 min)
1 | O=C(C=Cc1ccc(O)c(O)c1)OC1C(O)CC(O)(C(=O)O)CC1O (centres unmarked) [CCGA, cryptochlorogenic acid] | 110 µM | 110 µM | 38.47 µg/mL (≈ 109 µM) | 109 µM |  |  |  |  |  |  |  |  | 
2 | O=C(/C=C/c1ccc(O)c(O)c1)O[C@@H]1C[C@](O)(C(=O)O)C[C@@H](O)[C@H]1O [CGA, chlorogenic acid] | 126 µM | 126 µM | 40.60 µg/mL (≈ 115 µM) | 115 µM | 210 fold |  |  |  |  |  |  |  | 
3 | O=C(C=Cc1ccc(O)c(O)c1)OC1CC(O)(C(=O)O)CC(O)C1O (centres unmarked) [NCGA, neochlorogenic acid] | 130 µM | 129 µM | 31.07 µg/mL (≈ 87.7 µM) | 87.7 µM | 215 fold |  |  |  |  |  |  |  | 
4 | C[C@H]1O[C@H](O[C@H]2[C@H](O)[C@@H](O)[C@@H](O[C@H]3[C@H](O)[C@@H](O)C(O)O[C@@H]3CO)O[C@@H]2CO)[C@H](O)[C@@H](O)[C@@H]1N[C@H]1C=C(CO)[C@@H](O)[C@H](O)[C@H]1O (some centres unmarked) [acarbose, Acarbose] |  |  |  | 0.26 µM |  | significantly lower | significant attenuation | restored glycemic levels to preprandial values | lower PBG levels at 30 and 60 min, although these differences were not statistically significant | statistically significant reductions | significantly reduced | markedly decreased | 0.168 µg/mL

— article PMC12388904, “Hypoglycemic Effects of Silphium perfoliatum L. In Vitro and In Vivo and Its Active Composition Identification by UPLC-Triple-TOF-MS/MS” (Pharmaceuticals, 2025)
